Structures can show the parent of a compound that is named as a salt. Where two headings read alike, the source gives them in different places.
What was measured:
[1] = General antimicrobial activity assay (whole-cell broth microdilution MIC, CLSI M7-A7); assay type: cell-based
[2] = tested on: Mycobacterium tuberculosis H37Rv; test: Mycobacterium tuberculosis H37Rv inhibition assay (resazurin MIC); assay type: cell-based; details: ATCC 25618 / H37Rv, read-out: MIC value
[3] = 144 h, H37Rv strain (ATCC25618), Middlebrook 7H9, 37° C., six days, resazurin fluorescence after 48 hours
[4] = H37Rv strain (ATCC25618), Middlebrook 7H9, 37° C., six days, resazurin fluorescence after 48 hours

Row | Structure (SMILES) | MIC [1] [µg/mL] | MIC [2, 3] [µg/mL] | further results
1 | O=c1[nH]c(CNC2CCN(C[C@]3(O)Cn4c(=O)ccc5ncc(F)c3c54)CC2)nc2ccccc12 [Example 39] | < 4 |  | 
2 | O=c1c(Cl)cc2ncc(F)c3c2n1CC3(O)CN1CCC(NCc2cc3c(cn2)OCCO3)CC1 (racemic) [Example 24, (4R/S)-8-Chloro-4-({4-[(2,3-dihydro[1,4]dioxino[2,3-c]pyridin-7-ylmethyl)amino]-1-piperidinyl}methyl)-3-fluoro-4-hydroxy-4,5-dihydro-7H-pyrrolo[3,2,1-de]-1,5-naphthyridin-7-one Dihydrochloride] | < 4 |  | 
3 | COc1cnc2ccc(=O)n3c2c1[C@](O)(CN1CCC(NCc2cc4c(cn2)OCCO4)CC1)C3 [Example 65] | ≤ 8 |  | 
4 | CC(C)n1nnc2cc(CNC3CCN(C[C@]4(O)Cn5c(=O)ccc6ncc(F)c4c65)CC3)ccc21 [Example 47] | ≤ 8 |  | 
5 | COc1cnc2ccc(=O)n3c2c1[C@](O)(CN1CCC(NCc2cc4c(nn2)OCCO4)CC1)C3 [Example 66] |  |  | MIC ([1]; read-out: MIC values): > 16 µg/mL
6 | O=c1ccc2ncc(F)c3c2n1CC3(F)CN1CCC(NCc2cc3c(cn2)OCCO3)CC1 (stereo not drawn) [Example 26B, 4-({4-[(2,3-Dihydro[1,4]dioxino[2,3-c]pyridin-7-ylmethyl)amino]-1-piperidinyl}methyl)-3,4-difluoro-4,5-dihydro-7H-pyrrolo[3,2,1-de]-1,5-naphthyridin-7-one Dihydrochloride(E1 Enantiomer)] |  |  | MIC ([2]; 144 h): ≤ 4 µg/mL
7 | O=c1ccc2ncc(F)c3c2n1C[C@@]3(O)CN1CCC(NCc2cc3c(cn2)OCCS3)CC1 [Example 8A, (4S)-4-({4-[(2,3-Dihydro[1,4]oxathiino[2,3-c]pyridin-7-ylmethyl)amino]-1-piperidinyl}methyl)-3-fluoro-4-hydroxy-4,5-dihydro-7H-pyrrolo[3,2,1-de]-1,5-naphthyridin-7-one (E1 Enantiomer Series) Dihydrochloride] |  | ≤ 4 | MIC [2, 4]: ≤ 1.7 µg/mL
8 | O=c1ccc2ncc(F)c3c2n1C[C@@]3(O)CN1CCC(NCc2ccc3nnsc3c2)CC1 [Example 53, (4S)-4-({4-[(1,2,3-benzothiadiazol-6-ylmethyl)amino]-1-piperidinyl}methyl)-3-fluoro-4-hydroxy-4,5-dihydro-7H-pyrrolo[3,2,1-de]-1,5-naphthyridin-7-one] |  | ≤ 4 | MIC [2, 4]: ≤ 1.7 µg/mL
9 | O=c1[nH]c2ccccc2nc1CNC1CCN(C[C@]2(O)Cn3c(=O)ccc4ncc(F)c2c43)CC1 [Example 38] | < 4 |  | 
10 | O=c1ccc2ncc(F)c3c2n1C[C@@]3(O)CN1CCC(NCc2cnc3snnc3c2)CC1 [Example 56, (4S)-3-fluoro-4-hydroxy-4-({4-[([1,2,3]thiadiazolo[5,4-b]pyridin-6-ylmethyl)amino]-1-piperidinyl}methyl)-4,5-dihydro-7H-pyrrolo[3,2,1-de]-1,5-naphthyridin-7-one] |  | ≤ 4 | MIC [2, 4]: ≤ 1.7 µg/mL
11 | O=c1ccc2ncc(F)c3c2n1C[C@@]3(O)CN1CCC(NCc2cc3ccccc3cn2)CC1 [Example 36, (4S)-3-fluoro-4-hydroxy-4-({4-[(3-isoquinolinylmethyl)amino]-1-piperidinyl}methyl)-4,5-dihydro-7H-pyrrolo[3,2,1-de]-1,5-naphthyridin-7-one] |  | ≤ 4 | 

Source: US20100184751A1, “HETEROCYCLIC COMPOUNDS FOR THE TREATMENT OF TUBERCULOSIS” (priority 2007, published 2010)
